Results taken from patent publication US9943501B2 (KOJUN JAPAN CO., LTD., priority 2014, dated 2018).

How the values were obtained:
[1] = tested on: C57BL/6J mice fed with a high-fat diet; assay: Anti-obesity effect (body weight) on dietary-induced obesity mouse model; assay type: in vivo; settings: 12 weeks; for body weight gain inhibited, with respect to the body weight gain of the control group attributed to the high-calorie diet: once a day into the stomach, 84th day
Description: The 5H4PB obtained in Example 6 administered to mice fed with a high-fat diet to verify its anti-obesity effect. Five-week-old male C57BL/6J mice (supplied by Charles River Laboratories Japan, Inc.) were individually raised (one per cage) under environmental conditions involving a temperature of 20 to 26° C., a humidity of 35 to 75%, and 12-hour illumination (7:00 to 19:00). After acclimatization for approximately 1 week, the mice were divided into 6 groups each involving 6 to 8 individuals. Of the test groups, a normal group was fed with a normal solid diet CRF1 (a product of Oriental Yeast Co., Ltd., 3.57 kcal/g) during the test period, and a control group and drug administration groups were fed with a high-calorie solid diet D12492 (a product of Research Diets, Inc., 5.24 kcal/g) during the test period. The diets were freely taken, and water was also freely taken from water supply bottles.
The test substance 5H4PB (produced in Example 6) or a positive control substance rosiglitzaone (a product of Wako Pure Chemical Industries, Ltd.) was administered once a day for 12 weeks at the predetermined dose shown in Table 2 to the mice in each drug administration group. The rosiglitazone is a selective PPARγ ligand and is a substance having the effect of lowering the concentrations of glucose, fatty acid, and insulin in blood through binding to PPARγ. For the administration, body weight measurement was carried out once a week to calculate the dose to each individual. 5H4PB and rosiglitazone were each suspended in a 0.5 w/v % aqueous methylcellulose solution and diluted with the same aqueous solution to adjust the administration dose to 10 mL/kg. Then, each substance was forced-administered into the stomach using a syringe and a flexible stomach tube. […]
From the start of the test (administration), the body weight of each individual was measured at a frequency of once a week, and the average body weight of each test group was determined. […]

[2] = tested on: C57BL/6J mice fed with a high-fat diet; assay: Leptin in blood of dietary-induced obesity mouse model; assay type: in vivo; settings: 0.037 μg/kg/day and 0.01 mg/kg/day; 85 days; FIG. 17
Description: For each individual of the male C57BL/6J mice after a lapse of 85 days into the test of Example 9, blood was collected from the abdominal vena cava using a syringe supplemented with heparin under anesthesia with 2% isoflurane. The amount of blood collected was set to approximately 0.8 mL. The collected blood was stored under ice cooling until centrifugation. After centrifugation (conditions: 4° C., approximately 1800×g, 10 min), the upper layer was recovered to obtain plasma. The plasma was dispensed to sampling tubes and cryopreserved until measurement. The mouse adiponectin concentration contained in the mouse plasma obtained from each individual was measured using a commercially available ELISA kit, and the average adiponectin concentration of each test group was determined.
Leptin is a protein hormone that regulates appetite and metabolism. The leptin concentration in blood is known to elevate due to obesity, resulting in leptin resistance. In Example 10, the amount of mouse leptin contained in the mouse plasma obtained from each individual was measured using a commercially available ELISA kit, and the average leptin concentration of each test group was determined. The ordinate of the drawing depicts the leptin concentration (pg/mL) in the mouse plasma. The test group indicated by each bar of the bar graph is the same as in FIGS. 15 and 16 mentioned above.

Structure (SMILES): O=C1C=C(c2ccccc2)C(O)O1 (stereo not shown) [5H4PB, 5-hydroxy-4-phenylbutenolide]
- anti-obesity effect (overall) ([1]; 0.037 μg/kg/day and 0.01 mg/kg/day): high anti-obesity effect
- body weight gain inhibited, with respect to the body weight gain of the control group attributed to the high-calorie diet ([1]; 0.037 μg/kg/day): 25.8%
- body weight gain inhibited, with respect to the body weight gain of the control group attributed to the high-calorie diet ([1]; 0.01 mg/kg/day): 27.8%
- leptin concentration in mouse plasma compared with the control group [2]: inhibition of a rise in leptin concentration was confirmed in a dose-dependent manner
